# Data: patent US11299485B2, “Thiophene derivative and use thereof” (FUJIMOTO CO., LTD., priority 2018, dated 2022)
# Marks after values point to notes of the source that are not given here.
# Key:
# Type in all cases: cell-based
# TNF-α production = assay: Human TNF-α production suppression test (LPS-stimulated peripheral blood mononuclear cells, ELISA); details: PBMC, 24 hr; for inhibition at 10 µg/mL: compound 10 μg/mL, control well = 100, read-out: TNF-α production suppressive rate (%)
# Description: Example 50: Human TNF-α Production Suppression Test
# Peripheral blood of a healthy adult was collected in a vacuum blood collection tube (Terumo, containing EDTA/2Na), and then diluted two-fold with an equal volume of OTSUKA NORMAL SALINE (Otsuka Pharmaceutical Co., Ltd.). The diluted blood was mixed with Lymphoprep (AXIS-SHIELD) in half the volume of the diluted blood, dispensed into a 15 mL conical tube, and centrifuged at room temperature for 20 min (2,100 rpm). The mononuclear cells accumulated at the interface between Lymphoprep and plasma was transferred to a 50 mL conical tube, diluted with OTSUKA NORMAL SALINE, and the mononuclear cells suspension was centrifuged at room temperature for 10 min (1,150 rpm) and then the supernatant was removed. The mononuclear cells fraction obtained as a precipitate was suspended in an appropriate amount of 10% fetal calf serum (Thermo Fisher Scientific)-containing RPMI1640 medium (Thermo Fisher Scientific, hereinafter abbreviated as medium A), and diluted as appropriate with 0.4% trypan blue solution (Sigma-Aldrich Co. LLC.). The number of viable cells was counted with a hemocytometer (ERMA INC.). It was diluted with medium A such that the value obtained was 5×10^5 cells/mL. On the other hand, 75 μL of medium A, 5 μL of 0.4 mg/mL test compound solution (DMSO solution 10-fold diluted with medium A), and 20 μL of 10 μg/mL lipopolysaccharide (Sigma-Aldrich Co. LLC.) solution (diluted with medium A) were each added in advance to the same well of a Falcon 96-well flat bottom plate (Corning Incorporated), and the above-mentioned cell suspension was dispensed at 0.1 mL/well. 5 μL of DMSO diluted 10-fold with medium A was added to the control well instead of the compound solution. After culturing at 37° C. in a 5% CO2 stream for 24 hr, the culture solution was centrifuged at 4° C., 1,000 rpm for 3 min and the supernatant was recovered. The content of TNF-α in the supernatant was measured using an ELISA kit (Peprotech) according to a conventional method. The amount of TNF-α produced in the well containing the test compound was determined with the amount of TNF-α produced in the control well as 100, and the suppression rate was calculated for each test.
# MM.1S cells = assay: Human myeloma cell line MM.1S proliferation suppression test; details: MM1.S, 72 h, compound 10 μM, 3 days, WST-1 or WST-8, read-out: cell survival rate (% of control) MM.1S
# Description: Example 51: Human Myeloma Cell Line MM.1S Proliferation Suppression Test
# MM.1S cells (ATCC, CRL-2974) were suspended in 10% fetal calf serum (Thermo Fisher Scientific)-containing RPMI1640 medium (ATCC, hereinafter abbreviated as medium B), and diluted as appropriate with 0.4% trypan blue solution (Sigma-Aldrich Co. LLC.). The number of viable cells was counted with a hemocytometer (ERMA INC.). It was diluted with medium B such that the value obtained was 2×10^5 cells/mL. On the other hand, 50 μL of a solution obtained by diluting 4 mM DMSO solution of the test compound 200-fold with medium B was added to each well of a Falcon 96-well flat bottom plate (Corning Incorporated), and the above-mentioned cell suspension was dispensed at 50 μL/well (final concentration of test compound 10 μM). 50 μL of a solution obtained by diluting DMSO 200-fold with medium B was added to the control well. After culturing at 37° C. in a 5% CO2 stream for 3 days, the cell proliferation activity was measured using WST-1 (DOJINDO LABORATORIES) or WST-8 Kit (KISHIDA CHEMICAL Co., Ltd.) and according to each instruction manual attached thereto.
# REC-1 cells = assay: Human mantle cell lymphoma cell line REC-1 proliferation suppression test; details: Rec1, 72 h, compound 10 μM, 3 days, WST-8, read-out: cell survival rate (% of control) REC-1
# Description: Example 53: Human Mantle Cell Lymphoma Cell Line REC-1 Proliferation Suppression Test
# REC-1 cells (ATCC, CRL-3004) were suspended in medium B, and diluted as appropriate with 0.4% trypan blue solution (Sigma-Aldrich Co. LLC.). The number of viable cells was counted with a hemocytometer (Funakoshi Co., Ltd.). A cell suspension obtained by diluting with medium B such that the value obtained was 1.3×10^5 cells/mL was dispensed into a Falcon 96 well flat bottom plate (Corning Incorporated) at 75 μL/well, and culture was started at 37° C. under 5% CO2 stream. The next day, a solution obtained by diluting 4 mM DMSO solution of the test compound 100-fold with medium B was added by 25 μL to each well (final concentration of test compound 10 μM). 25 μL of a solution obtained by diluting DMSO 100-fold with medium B was added to the control well. After culturing at 37° C. in a 5% CO2 stream for 3 days, the cell proliferation activity was measured according to the instruction manual attached to WST-8 Kit (KISHIDA CHEMICAL Co., Ltd.).
# [1] = tested on: human peripheral blood mononuclear cells (PBMC); assay: Cytotoxicity test using human peripheral blood mononuclear cells (PBMC); details: LPS, 24 hr
# Description: Example 56: Cytotoxicity Test Using Human Peripheral Blood Mononuclear Cells (PBMC)
# Peripheral blood of a healthy adult was collected in a Venoject II vacuum blood collection tube (Terumo, containing EDTA/2Na), and then diluted two-fold with an equal volume of OTSUKA NORMAL SALINE (Otsuka Pharmaceutical Co., Ltd.). The diluted blood was mixed with Lymphoprep (AXIS-SHIELD) in half the volume of the diluted blood, dispensed into a 15 mL conical tube, and centrifuged at room temperature for 20 min (2,100 rpm). The mononuclear cells accumulated at the interface between Lymphoprep and plasma was transferred to a 50 mL conical tube, diluted with OTSUKA NORMAL SALINE, and the mononuclear cells suspension was centrifuged at room temperature for 10 min (1,150 rpm) and then the supernatant was removed. The mononuclear cells fraction obtained as a precipitate was suspended in an appropriate amount of medium A, and diluted as appropriate with 0.4% trypan blue solution (Sigma-Aldrich Co. LLC.). The number of viable cells was counted with a hemocytometer (ERMA INC.). It was diluted with medium A such that the value obtained was 5×10^5 cells/mL. On the other hand, 37.5 μL of medium A, 2.5 μL of 0.4 mg/mL test compound solution (DMSO solution 10-fold diluted with medium A), and 10 μL of 10 μg/mL lipopolysaccharide (Sigma-Aldrich Co. LLC.) solution (diluted with medium A) were each added in advance to the same well of a Falcon 96-well flat bottom plate (Corning Incorporated), and the above-mentioned cell suspension was dispensed at 50 μL/well (final concentration of test compound 10 μg/mL). 2.5 μL of DMSO diluted 10-fold with medium A was added to the control well instead of the compound solution. After culturing at 37° C. in a 5% CO2 stream for 24 hr, the cell survival rate was measured using WST-1 (DOJINDO LABORATORIES) or WST-8 kit (KISHIDA CHEMICAL Co., Ltd.) and according to each instruction manual attached thereto.
# [2] = compound 10 μg/mL, WST-1 or WST-8
SMILES,inhibition at 10 µg/mL (TNF-α production),viability at 10 µM (MM.1S cells),viability at 10 µM (REC-1 cells),"cell survival rate (% of control) PBMC [1, 2]",inhibition at 3 µg/mL (TNF-α production; suppressive rate at 3 μg/mL),cell survival rate (% of control) PBMC ([1]; 3 μg/mL due to precipitation of compound in medium)
"CCOc1cscc1-c1cn(C2CCC(=O)NC2=O)nn1 (stereo not drawn) [compound 17, 3-[4-(4-ethoxythiophen-3-yl)-1H-1,2,3-triazol-1-yl]piperidine-2,6-dione]",92%,32%,23%,49 % of control,,
"COc1sccc1-c1cn(C2CCC(=O)NC2=O)nn1 (stereo not drawn) [compound 18, 3-[4-(2-methoxythiophen-3-yl)-1H-1,2,3-triazol-1-yl]piperidine-2,6-dione]",100%,27%,18%,53 % of control,,
"COc1cscc1-c1cn(C2CCC(=O)NC2=O)nn1 (stereo not drawn) [compound 19, 3-[4-(4-methoxythiophen-3-yl)-1H-1,2,3-triazol-1-yl]piperidine-2,6-dione]",83%,24%,4%,99 % of control,,
"COc1cc(-c2cn(C3CCC(=O)NC3=O)nn2)cs1 (stereo not drawn) [compound 20, 3-[4-(5-methoxythiophen-3-yl)-1H-1,2,3-triazol-1-yl]piperidine-2,6-dione]",87%,35%,22%,104 % of control,,
"CCCOc1cscc1-c1cn(C2CCC(=O)NC2=O)nn1 (stereo not drawn) [compound 21, 3-[4-(4-propoxythiophen-3-yl)-1H-1,2,3-triazol-1-yl]piperidine-2,6-dione]",30%,75%,63%,116 % of control,,
"COc1c(-c2cn(C3CCC(=O)NC3=O)nn2)csc1Cl (stereo not drawn) [compound 22, 3-[4-(5-chloro-4-methoxythiophen-3-yl)-1H-1,2,3-triazol-1-yl]piperidine-2,6-dione]",48%,73%,65%,132 % of control,,
"COc1c(-c2cn(C3CCC(=O)NC3=O)nn2)csc1Br (stereo not drawn) [compound 23, 3-[4-(5-bromo-4-methoxythiophen-3-yl)-1H-1,2,3-triazol-1-yl]piperidine-2,6-dione]",62%,75%,70%,104 % of control,,
"CCOc1cc(-c2cn(C3CCC(=O)NC3=O)nn2)cs1 (stereo not drawn) [compound 24, 3-[4-(5-ethoxythiophen-3-yl)-1H-1,2,3-triazol-1-yl]piperidine-2,6-dione]",75%,63%,46%,91 % of control,,
"CCCCOc1cscc1-c1cn(C2CCC(=O)NC2=O)nn1 (stereo not drawn) [compound 25, 3-[4-(4-butoxythiophen-3-yl)-1H-1,2,3-triazol-1-yl]piperidine-2,6-dione]",49%,69%,57%,118 % of control,,
"CC(C)Oc1cscc1-c1cn(C2CCC(=O)NC2=O)nn1 (stereo not drawn) [compound 26, 3-[4-(4-isopropoxythiophen-3-yl)-1H-1,2,3-triazol-1-yl]piperidine-2,6-dione]",83%,40%,23%,42 % of control,,
"O=C1CCC(n2cc(-c3cscc3OC3CCCC3)nn2)C(=O)N1 (stereo not drawn) [compound 27, 3-{4-[4-(cyclopentyloxy)thiophen-3-yl]-1H-1,2,3-triazol-1-yl}piperidine-2,6-dione]",39%,82%,80%,107 % of control,,
"O=C1CCC(n2cc(-c3cscc3OCC3CC3)nn2)C(=O)N1 (stereo not drawn) [compound 28, 3-{4-[4-(cyclopropylmethoxy)thiophen-3-yl]-1H-1,2,3-triazol-1-yl}piperidine-2,6-dione]",37%,68%,58%,89 % of control,,
"O=C1CCC(n2cc(-c3cscc3OCC3CCCC3)nn2)C(=O)N1 (stereo not drawn) [compound 29, 3-{4-[4-(cyclopentylmethoxy)thiophen-3-yl]-1H-1,2,3-triazol-1-yl}piperidine-2,6-dione]",57%,89%,86%,104 % of control,,
"O=C1CCC(n2cc(-c3cscc3OCC3CCCCC3)nn2)C(=O)N1 (stereo not drawn) [compound 30, 3-{4-[4-(cyclohexylmethoxy)thiophen-3-yl]-1H-1,2,3-triazol-1-yl}piperidine-2,6-dione]",79%,59%,49%,70 % of control,,
"COc1ccc(COc2cscc2-c2cn(C3CCC(=O)NC3=O)nn2)cc1 (stereo not drawn) [compound 31, 3-{4-[4-(4-methoxybenzyloxy)thiophen-3-yl]-1H-1,2,3-triazol-1-yl}piperidine-2,6-dione]",,27%,27%,,82%,106** % of control
